Results published in PubChem BioAssay (NCI).
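In this assay, cells in 96-well plates receive the compound at five concentrations for 48 hours. Endpoints are linearly interpolated between the surrounding concentrations. GI50 marks 50% less growth. TGI is the concentration that stops growth completely.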

Key:
Assay in all cases: NCI tumour cell line growth inhibition, 48 h
[1] = test system: MDA-MB-435
[2] = test system: EKVX NSCLC
[3] = test system: SW-620 colon
[4] = test system: SK-OV-3 ovarian
[5] = test system: NCI-H23 lung
[6] = test system: K-562 leukemia
[7] = test system: HOP-92 NSCLC
[8] = test system: OVCAR-3 ovarian
[9] = test system: HOP-62 NSCLC
[10] = test system: HT29 colon

Row | Structure (SMILES) | GI50 [1] [µM] | TGI [1] [µM] | GI50 [2] [µM] | TGI [2] [µM] | GI50 [3] [µM] | TGI [3] [µM] | GI50 [4] [µM] | TGI [4] [µM] | GI50 [5] [µM] | TGI [5] [µM] | GI50 [6] [µM] | TGI [6] [µM] | GI50 [7] [µM] | TGI [7] [µM] | GI50 [8] [µM] | TGI [8] [µM] | GI50 [9] [µM] | TGI [9] [µM] | TGI [10] [µM] | GI50 [10] [µM]
1 | NC(=O)c1ccc(-c2c3ccccc3cc3c2ccc2ccccc23)cc1 | 0.382 | 3.51 | 9.35 | > 100 | 2.56 | 19.7 | 4.02 | 24.2 | 10.7 | 84.4 | 1.5 | > 100 | 6.39 | 25.8 | 1.94 | 6.98 | 4.28 | 23.2 | – | –
2 | COc1ccccc1OCC(COC(=O)Nc1ccc(C)cc1)OC(=O)Nc1ccc(C)cc1 (stereo unspecified) | – | – | – | 65.8 | – | 28.1 | – | 47.8 | – | 63.7 | – | 45.5 | – | 29 | – | 33.9 | – | > 100 | 38.3 | –
3 | O=C(Nc1ccc(-c2nc3ccc(NC(=O)c4ccc(Cl)cc4)cc3[nH]2)cc1)c1ccc(Cl)cc1 | 2.36 | 7.14 | – | – | 2.35 | 8.46 | 11.8 | 24.2 | 4.63 | 16.4 | 0.487 | 4.57 | 2.68 | 11 | 3.31 | 11.4 | 2.59 | 9.07 | 6.89 | 2.11
4 | c1ccc(CN(Cc2ccccn2)Cn2cccn2)nc1 | – | – | – | > 100 | – | > 100 | – | > 100 | – | > 100 | – | > 100 | – | > 100 | – | > 100 | – | > 100 | – | –
5 | N#CC(C#N)=C/C=C/c1cccc([N+](=O)[O-])c1 | 0.426 | 2.53 | 3.47 | 27.8 | 0.914 | 2.57 | 2.62 | 9.2 | 1.59 | 4.26 | 1.59 | > 100 | 2.43 | 7.71 | 0.533 | 4.36 | 1.81 | 6.39 | – | –
6 | N#CC(/C(=N\NC(N)=S)C(=O)NC1C2CC3CC(C2)CC1C3)c1ccc(Cl)cc1 (stereo unspecified) | – | – | – | > 100 | – | > 100 | – | > 100 | – | > 100 | – | > 100 | – | > 100 | – | > 100 | – | > 100 | > 100 | –
7 | CN1C=CN(Cc2ccc(-c3ccccn3)nc2)[CH-]1.CN1C=CN(Cc2ccc(-c3ccccn3)nc2)[CH-]1.[Au+3] | 2.97 | 20.9 | – | – | 0.898 | 17.2 | 9.32 | > 56.7 | 5.37 | > 100 | 0.54 | > 100 | 3.2 | 10.2 | 2.41 | 13.8 | 8.31 | 25.8 | > 100 | 1.96
8 | C=C1C(=O)C23C(CC(OC(C)=O)C1[C@@H]2OC(C)=O)C1(C)C(OC(C)=O)CCC(C)(C)C1C[C@@H]3OC(C)=O (stereo partly specified) | – | – | – | 5.38 | – | 2.75 | – | 3.59 | – | – | – | 3.6 | – | 1.35 | – | 3.03 | – | 7.98 | 2.22 | –
9 | COC(=N)/C(=C1\OC(N)=C(c2ccc(Cl)cc2)C1=O)c1ccc(Cl)cc1 | – | – | – | > 100 | – | > 100 | – | > 100 | – | > 100 | – | > 100 | – | > 100 | – | > 100 | – | > 100 | > 100 | –
10 | C[P+](C)(CC(F)(F)F)c1ccccc1 | – | – | – | > 100 | – | > 100 | – | > 100 | – | > 100 | – | > 100 | – | – | – | > 100 | – | > 100 | > 100 | –
11 | CCCC/C(C)=N/NC(N)=S | – | – | – | > 100 | – | > 100 | – | > 100 | – | > 100 | – | > 100 | – | > 100 | – | > 100 | – | > 100 | > 100 | –
12 | COc1ccc2c(c1)[n+]([O-])c(-c1ccc(Cl)c(Cl)c1)c(N)[n+]2[O-] | – | – | – | > 100 | – | > 100 | – | > 100 | – | 30.9 | – | > 100 | – | > 100 | – | 68 | – | > 100 | > 100 | –
13 | C/C(=N\NC(=S)Nc1ccc([N+](=O)[O-])cc1S(=O)(=O)O)c1ccccn1 | – | – | – | > 100 | – | 56.5 | – | – | – | > 100 | – | > 100 | – | > 100 | – | 72.7 | – | > 100 | > 100 | –
14 | CCOC(=O)c1cc2cc([N+](=O)[O-])ccc2oc1=O | – | > 100 | – | > 100 | – | > 100 | – | – | – | > 100 | – | > 100 | – | > 100 | – | > 100 | – | > 100 | > 100 | –
15 | OCC1CC2CC1C1(C2)OCCO1 (stereo unspecified) | – | – | – | > 100 | – | > 100 | – | > 100 | – | > 100 | – | > 100 | – | > 100 | – | > 100 | – | > 100 | > 100 | –
16 | Cc1ccc(NC(=O)CCC(=O)C(C#N)c2ccc(Cl)cc2)cc1C (stereo unspecified) | – | – | – | > 100 | – | > 100 | – | – | – | > 100 | – | > 100 | – | > 100 | – | > 100 | – | > 100 | > 100 | –
17 | Nc1nc(Cl)cc(NCCCCCCCCCCNc2cc(Cl)nc(N)n2)n1 | – | – | – | > 100 | – | > 100 | – | > 100 | – | > 100 | – | > 100 | – | > 100 | – | > 100 | – | > 100 | > 100 | –
18 | COCCn1cc(-c2csc(-c3c[nH]c4ccc(F)cc34)n2)c2cccnc21 | 0.89 | 14.3 | 1.98 | > 100 | 3.63 | > 100 | – | – | 3.88 | > 100 | 2.12 | > 100 | 6.28 | > 100 | 3.34 | > 100 | 2.02 | > 100 | > 100 | 2.9
19 | COc1cc(C(N)=O)c(OC)c(OC)c1OC | – | – | – | > 100 | – | > 100 | – | > 100 | – | > 100 | – | > 100 | – | > 100 | – | > 100 | – | > 100 | > 100 | –
